According to patent US20220120736A1, “METHODS AND ASSAYS FOR MODULATING GENE TRANSCRIPTION BY MODULATING CONDENSATES” (Whitehead Institute for Biomedical Research, priority 2018, published 2022):

Legend:
Format in all cases: cell-based
OCT4 (FKBP-tagged) [1] = molecular target: T1, OCT4 (FKBP-tagged) (Mus musculus, UniProt P20263+Q8C7D2); assay: MED1 IF with DNA FISH at Nanog after OCT4 degradation; details: dTag versus DMSO
T1 construct: an ESC line bearing endogenous knock-in of DNA encoding the FKBP protein fused to OCT4; HA (C); endogenous in cells; host or cells: V6.5 mouse ES cells (Med1-mEGFP background), homozygous Oct4-FKBP knock-in
Procedure: Immunofluorescence was performed as previously above. After incubating the cells with the secondary antibodies, cells were washed three times in PBS for 5 min at RT, fixed with 4% PFA in PBS for 10 min and washed three times in PBS. Cells were incubated in 70% ethanol, 85% ethanol and then 100% ethanol for 1 minute at RT. Probe hybridization mixture was made mixing 7 μL of FISH Hybridization Buffer (Agilent G9400A), 1 μl of FISH probes (see below for region) and 2 μL of water. 5 μL of mixture was added on a slide and coverslip was placed on top (cell-side toward the hybridization mixture). Coverslip was sealed using rubber cement. Once rubber cement solidified, genomic DNA and probes were denatured at 78° C. for 5 minutes and slides were incubated at 16° C. in the dark O/N. The coverslip was removed from slide and incubated in pre-warmed Wash buffer 1 (Agilent, G9401A) at 73° C. for 2 minutes and in Wash Buffer 2 (Agilent, G9402A) for 1 minute at RT. […]
For analysis of RNA FISH with immunofluorescence custom in-house MATLAB™ scripts were written to process and analyze 3D image data gathered in FISH (RNA/DNA) and IF channels. […] The IF signal centered at FISH foci for each FISH and IF pair are then combined and an average intensity projection is calculated, providing averaged data for IF signal intensity within a l×l square centered at FISH foci. […]

OCT4 (FKBP-tagged) [2] = molecular target: T1, OCT4 (FKBP-tagged); assay: Western blot after OCT4 degradation in OCT4 degron line; details: dTag versus DMSO
Procedure: Cells were lysed in Cell Lytic M (Sigma-Aldrich C2978) with protease inhibitors (Roche, 11697498001). Lysate was run on a 3%-8% Tris-acetate gel or 10% Bis-Tris gel or 3-8% Bis-Tris gels at 80 V for ˜2 hrs, followed by 120 V until dye front reached the end of the gel. Protein was then wet transferred to a 0.45 μm PVDF membrane (Millipore, IPVH00010) in ice-cold transfer buffer (25 mM Tris, 192 mM glycine, 10% methanol) at 300 mA for 2 hours at 4° C. After transfer the membrane was blocked with 5% non-fat milk in TBS for 1 hour at room temperature, shaking. Membrane was then incubated with 1:1,000 of the indicated antibody (Table S4) diluted in 5% non-fat milk in TBST and incubated overnight at 4° C., with shaking. In the morning, the membrane was washed three times with TBST for 5 minutes at room temperature shaking for each wash. Membrane was incubated with 1:5,000 secondary antibodies for 1 hr at RT and washed three times in TBST for 5 minutes. Membranes were developed with ECL substrate (Thermo Scientific, 34080) and imaged using a CCD camera or exposed using film or with high sensitivity ECL.
The CRISPR/Cas9 system was used to genetically engineer ESC lines. Target-specific oligonucleotides were cloned into a plasmid carrying a codon-optimized version of Cas9 with GFP (gift from R. Jaenisch). […]

[3] = system: ER LBD (GAL4 DNA-binding domain fusion) in HEK293T cells; assay: GAL4 transactivation assay; details: elevated MED1 levels; 10 nM Tamoxifen, 24 hours
Description: (SEQ ID NO: 14). […] For high MED1 conditions, a construct with a mammalian expression vector containing a PGK promoter driving the expression of MED1 fused to GFP was co-transfected.

T1 sequence (P20263 with tags, fused parts or gaps): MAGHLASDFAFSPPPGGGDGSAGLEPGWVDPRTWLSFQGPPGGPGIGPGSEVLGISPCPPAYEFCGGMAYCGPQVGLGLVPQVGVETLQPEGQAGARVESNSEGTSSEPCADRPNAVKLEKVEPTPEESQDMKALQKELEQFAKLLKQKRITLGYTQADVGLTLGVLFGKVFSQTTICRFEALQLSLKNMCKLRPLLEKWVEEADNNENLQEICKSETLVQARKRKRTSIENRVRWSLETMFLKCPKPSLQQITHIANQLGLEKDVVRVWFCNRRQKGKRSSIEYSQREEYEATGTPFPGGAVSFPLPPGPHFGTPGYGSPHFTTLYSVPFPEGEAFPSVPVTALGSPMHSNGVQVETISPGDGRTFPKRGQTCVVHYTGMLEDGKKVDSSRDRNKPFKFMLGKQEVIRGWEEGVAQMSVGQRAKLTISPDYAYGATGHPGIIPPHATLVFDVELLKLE
T1 sequence (Q8C7D2 whole entry, the tested form may be a part): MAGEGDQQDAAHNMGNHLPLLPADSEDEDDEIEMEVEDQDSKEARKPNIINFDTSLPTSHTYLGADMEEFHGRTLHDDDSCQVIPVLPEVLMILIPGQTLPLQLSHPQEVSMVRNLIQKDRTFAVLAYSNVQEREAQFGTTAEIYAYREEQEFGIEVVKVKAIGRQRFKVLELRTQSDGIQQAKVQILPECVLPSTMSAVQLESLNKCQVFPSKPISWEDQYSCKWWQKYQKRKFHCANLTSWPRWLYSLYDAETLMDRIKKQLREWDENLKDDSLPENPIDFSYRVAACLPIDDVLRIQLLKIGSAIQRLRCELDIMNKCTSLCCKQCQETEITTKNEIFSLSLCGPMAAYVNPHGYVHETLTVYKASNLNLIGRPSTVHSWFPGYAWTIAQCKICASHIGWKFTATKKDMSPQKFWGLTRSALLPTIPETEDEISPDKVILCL
T1 sequence (Q3U1J4 whole entry partner, the tested form may be a part): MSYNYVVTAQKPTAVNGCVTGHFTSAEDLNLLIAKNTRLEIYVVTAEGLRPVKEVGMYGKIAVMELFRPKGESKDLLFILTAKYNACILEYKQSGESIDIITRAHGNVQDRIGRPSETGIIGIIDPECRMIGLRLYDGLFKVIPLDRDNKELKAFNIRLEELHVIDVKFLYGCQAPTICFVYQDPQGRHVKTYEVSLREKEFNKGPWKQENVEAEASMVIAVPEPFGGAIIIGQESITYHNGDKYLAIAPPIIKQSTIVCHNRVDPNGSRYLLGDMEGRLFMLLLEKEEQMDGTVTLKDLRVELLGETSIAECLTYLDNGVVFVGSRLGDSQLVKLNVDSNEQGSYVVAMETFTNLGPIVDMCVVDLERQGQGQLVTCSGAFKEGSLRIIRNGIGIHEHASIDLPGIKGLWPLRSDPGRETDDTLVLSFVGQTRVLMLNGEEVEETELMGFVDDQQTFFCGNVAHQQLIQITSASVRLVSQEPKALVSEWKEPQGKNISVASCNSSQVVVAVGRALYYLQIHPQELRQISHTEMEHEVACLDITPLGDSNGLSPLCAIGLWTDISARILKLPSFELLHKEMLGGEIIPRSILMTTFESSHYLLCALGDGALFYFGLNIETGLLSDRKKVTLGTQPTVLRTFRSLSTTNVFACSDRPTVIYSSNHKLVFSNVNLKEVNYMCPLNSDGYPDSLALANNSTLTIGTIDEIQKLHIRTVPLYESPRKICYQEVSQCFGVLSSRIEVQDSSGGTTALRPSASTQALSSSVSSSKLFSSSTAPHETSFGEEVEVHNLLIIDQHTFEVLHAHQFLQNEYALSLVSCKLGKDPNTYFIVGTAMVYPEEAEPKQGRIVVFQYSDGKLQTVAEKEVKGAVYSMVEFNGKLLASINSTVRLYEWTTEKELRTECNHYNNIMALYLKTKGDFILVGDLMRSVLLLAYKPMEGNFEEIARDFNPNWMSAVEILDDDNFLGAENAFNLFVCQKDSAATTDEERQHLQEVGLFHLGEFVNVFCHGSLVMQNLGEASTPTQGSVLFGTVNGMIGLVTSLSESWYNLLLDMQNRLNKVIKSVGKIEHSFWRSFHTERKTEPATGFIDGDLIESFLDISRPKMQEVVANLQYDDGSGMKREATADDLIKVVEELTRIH

SMILES | MED1 condensates at Nanog (OCT4 (FKBP-tagged) [1]) | MED1 protein levels (OCT4 (FKBP-tagged) [2]) | OCT4 protein levels (OCT4 (FKBP-tagged) [2]) | GAL4 transactivation with tamoxifen-bound ER [3]
CC[C@H](C(=O)N1CCCC[C@H]1C(=O)O[C@H](CCc1ccc(OC)c(OC)c1)c1ccccc1OCC(=O)NCCCCCCCCNc1ccc2c(c1)C(=O)N(C1CCC(=O)NC1=O)C2=O)c1cc(OC)c(OC)c(OC)c1 (stereo partly shown) [dTag] | reduction in MED1 condensates at Nanog | did not affect MED1 levels | reduced OCT4 protein levels | –
CC/C(=C(\c1ccccc1)c1ccc(OCCN(C)C)cc1)c1ccccc1 [tamoxifen] | – | – | – | showed activation
